Measurements from patent US20090105562A1, “SYSTEM AND METHODS FOR SCREENING OR ANALYZING TARGETS” (TAIPEI VETERANS GENERAL HOSPITAL, priority 2007, published 2009).

How the values were obtained:
Assay type in all cases: cell-based, rat
LPS-treated NSCs [1] = experiment: LPS-induced apoptotic activity in NSCs, caspase 8 and 3 ELISA
Procedure: (§1) IM was purchased from Sigma Chem. Co., St Louis, Mo., USA. NSCs were seeded on 24-well plates at a density of 2×10^4 cells/well in medium, followed by methyl thiazol tetrazolium assay (MTT assay) (Sigma-Aldrich Co., St Louis, Mo., USA) for cell viability. NSCs were incubated with 0.25 mg/ml MTT for 4 hours at 37° C. and the reaction was terminated by the addition of 100% isopropanol. The amount of MTT fromazon product was determined using a microplate reader and the absorbance was measured at 560 nm (SpectraMax 250, Molecular Devices, Sunnyvale, Calif., USA). NSCs were exposed to 0, 1, 2, 5, 10, 20, 30, 40, 50, 100, 200, and 300 μM of IM for 1, 3, 5, and 7 days, respectively. The activities of caspases 8 and 3 (Medical and Biological Laboratories Co., Ltd., Nagoya, Japan), and the concentration of IL-6, IL-1 and TNF-α (Pharmingen, San Diego, Calif., USA) were determined by ELISA kits and quantified by reading at 490 nm (MRX; Dynatech Laboratories, Chantilly, Va., USA). Each individual sample was analyzed in triplicate.
(§2) Double-stranded, short interfering RNA (siRNA) of BDNF and Bcl-2 were chemically synthesized by Ambion Inc., Austin, Tex., USA). The sense and antisense sequences of BDNF were designed as follows: Sense: […]tt; Antisense: AGCTTAAAAAGAG CTGtt, starting from nucleotide 137 of the Bcl-2 sequence (accession number L14680). The sense and antisense sequences of Bcl-2 were designed as follows: Sense: GCGCUGGAUAUAACUUCUUtt; Antisense: AAGAAGUUAUAUC CAGCGCtt, starting from nucleotide 137 of the Bcl-2 sequence (accession number L14680). In this test, the siRNA control used was siRNA-Cy3 (QIAGEN; sense sequence: UUCUCCGAACGUGU CACGUdTdT-3′-Cy3 and the complement 5′-ACGUGACACGUUCGGAGAAdTdT-3′-Cy3) as an irrelevant control. The transfection of siRNA was performed using Lipofectamine 2000 (Invitrogen, Carlsbad, Calif., USA) according to the manufacturer's instructions. In brief, cells were harvested with 0.25% trypsin, 1 mM ethylenediaminetetraacetic acid (EDTA) in phosphate buffered saline (PBS) without Ca^2+ and Mg^2+, and plated in six-well plates at 10^5 per cm^2. Then 3.5 μl siRNA (100 μM solution) was mixed with 125 μl serum-free culture medium for 5 minutes at room temperature. During this incubation period, 5 μl of Lipofectamine 2000 was diluted in 125 μl serum-free culture medium. These two mixtures were combined, mixed gently, and incubated for 20 minutes at room temperature for complex formation. This 250 μl of siRNA-Lipofectamine mixture was then added into the cells in a final volume of 2.5 ml per well. The transfected cells were cultured and fed daily with fresh medium until they were assayed.

LPS-treated NSCs [2] = experiment: ELISA of IL-1β, IL-6 and TNF-α in LPS-treated NSCs
Procedure: as §1, §2

NSCs = experiment: Triple-staining immunofluorescent assay of NSC differentiation into serotoninergic neurons
Procedure: All animals used were treated in accordance with the Animal Care and Use Committee guideline at Taipei Veterans General Hospital. The protocol of the present study was also approved by the committee. Adult Sprague-Dawley (SD) rats (8 weeks old, 250 g) were anesthetized with intraperitoneal phenobarbital (Sigma, USA), and the location of their brains was mapped. Then, the brain was surgically separated from the hippocampus region. In brief, tissues from the hippocampus of adult rats were dissociated and incubated in Hank's balanced salt solution (HBSS) containing collagenase (78 units/ml) and hyaluronidase (38 units/ml) for 10 minutes at 37° C. The tissues were then mechanically dissected and placed in a trypsin solution (1.33 mg/ml) at 37° C. for another 10 minutes. Dissociated cells were then centrifuged at […] for 5 minutes. Then the enzyme solution was removed and replaced with serum-free culture media composed of Dulbecco Modified Eagle Medium (DMEM) and F-12 nutrient mixture (1:1) including insulin (25 μg/mL), transferrin (100 μg/mL), progesterone (20 nM), putrescine (60 μM), sodium selenite (30 nM), human recombinant epidermal growth factor (EGF) 20 ng/mL, and fibroblast growth factor-basic (bFGF) (20 ng/mL) (R&D Systems, Minneapolis, Minn., USA). Viable cells were counted by trypan blue exclusion and plated as 5000 cells/200 μL per well in 96-well plates (Corning Inc, Acton, Mass., USA) with no substrate pretreatment. The IM was purchased from Sigma Chem. Co., St Louis, Mo., USA. The 0.1% dimethyl sulfoxide (DMSO) (Sigma Chem. Co., St Louis, Mo., USA) was used as a vehicle control in all procedures and studies. For differentiation protocol, the neurosphere NSCs were plated on poly-L-ornithine-coated (15 μg/mL) glass coverslips in individual wells of 24-well plates (1.0 mL/well) in DMEM/F-12 medium containing 2% fetal calf serum (FCS) (Gibcol-BRL, Gaitherburg, Md., USA) and withdrawing EGF and bFGF At the time of NSCs seeding, vehicle control or IM treatment was concurrently added.
An avidin-biotin complex method was used for the immunohistochemical staining in the differentiated NSCs. Following washes with the 3% hydrogen peroxide, sodium azide and antigens were retrieved using a microwave. […] Immunoreactive signals were detected with a mixture of biotinylated rabbit anti-mouse IgG and Fluoresave (Calbiochem, La Jolla, Calif., USA) under confocal microscopy (Olympus, FV300). Each individual sample was analyzed in triplicate. […] The percentage of TUNEL-positive cells was measured by the average of 6 different areas as compared to the total cell number in the same section slide (under a×200 power field of a light microscope).

LPS-treated NSCs [3] = experiment: Cell survival rate of LPS-treated NSCs
Procedure: as §1
as §2, with “Then 3.5 μl siRNA (100 μM solution) was mixed with 125 μl serum-free culture medium for 5 minutes at room temperature. During this incubation period, 5 μl of Lipofectamine 2000 was diluted in 125 μl serum-free culture medium. These two mixtures were combined, mixed gently, and incubated for 20 minutes at room temperature for complex formation. This 250 μl of siRNA-Lipofectamine mixture was then added into the cells in a final volume of 2.5 ml per well. The transfected cells were cultured and fed daily with fresh medium until they were assayed.” left out

[4] = LPS (100 ng/ml) exposure, Day 7 IM-treated vs without IM, p<0.05
[5] = vs only LPS-treated NSCs, IM 3 μM, p<0.05
[6] = Day 7 culture of IM-treated vs non IM-treated NSCs, p<0.05
[7] = agent added to LPS-treated NSCs with IM, U0126 40 μM
[8] = agent added, Day 7 culture of IM-treated NSCs

For CN(C)CCCN1c2ccccc2CCc2ccccc21 [IM, imipramine], the “apoptotic activity of caspase 3” value (LPS-treated NSCs [1]; [4]) was “significantly decreased”, the “apoptotic activity of caspase 8” value (LPS-treated NSCs [1]; [4]) was “significantly decreased” and the “IL-1β production in LPS-treated NSCs” value (LPS-treated NSCs [2]; [5]) was “effectively reduces”. The “IL-6 production in LPS-treated NSCs” value (LPS-treated NSCs [2]; [5]) was “effectively reduces”, the “TNF-α production in LPS-treated NSCs” value (LPS-treated NSCs [2]; [5]) was “effectively reduces” and the “percentage of MAP-2-positive cells” value (NSCs; [6]) was “significantly increased”. The “percentage of serotonin (5-HT)-positive cells” value (NSCs; [6]) was “significantly increased” and the “cell survival rate in LPS-treated NSCs” value (LPS-treated NSCs [3]; vs only LPS-treated NSCs, LPS 100 ng/ml) was “significantly increases”.

In the case of N#CC(=C(/N)Sc1ccccc1N)/C(C#N)=C(\N)Sc1ccccc1N [U0126], the “apoptotic activities (caspase 8, caspase 3 and TUNEL assays) in LPS- and IM-treated NSCs” value (LPS-treated NSCs [1]; agent added to LPS- and IM-treated NSCs, U0126 40 μM) is reported as “significantly enhanced”, the “level of IL-1β in LPS-treated NSCs with IM” value (LPS-treated NSCs [2]; [7]) is reported as “significantly increased” and the “level of IL-6 in LPS-treated NSCs with IM” value (LPS-treated NSCs [2]; [7]) is reported as “significantly increased”. The “level of TNF-α in LPS-treated NSCs with IM” value (LPS-treated NSCs [2]; [7]) was “significantly increased”, the “percentage of MAP-2-positive cells in IM-treated NSCs” value (NSCs; [8]) was “significantly decrease” and the “percentage of serotonin (5-HT)-positive cells in IM-treated NSCs” value (NSCs; [8]) was “significantly decrease”. For the same compound, the “cell viability in LPS-treated NSCs with IM” value (LPS-treated NSCs [3]; after added treatment with the agent) was “dramatically decreased”.
